According to patent US20230023009A1, “HETEROCYCLIC COMPOUNDS AND METHODS OF USE THEREOF” (SPARCBIO LLC, priority 2020, published 2023):

Each compound was assayed against KRAS G12C protein (Homo sapiens, UniProt P01116, G12C) (assay: Nucleotide exchange assay (Method III, KRAS G12C/Raf-RBD TR-FRET)). Settings: SOS1-mediated exchange of GDP for GTP, 18 hr compound incubation.
Format: biochemical
Description: Method III. Inhibition of SOS1-mediated exchange of GDP for GTP on the KRAS G12C protein was measured in a biochemical assay that monitors association of KRAS G12C protein with the Ras-binding domain of Raf (Raf-RBD), where the association is coupled to exchange of GDP to GTP on the KRAS G12C protein. The assay was performed at WuXi AppTec (Shanghai, China). Compounds were serially diluted in 3-fold dilutions to 11 concentrations and spotted into the wells of an assay plate in a total volume of 150 nL DMSO per well. A 2× enzyme mix was prepared by diluting GDP-bound, His-tagged KRAS G12C to 25 nM in assay buffer. 10 μL/well of 2× enzyme mix was added to all wells, and the plate was sealed and incubated overnight (18 hr) at 23° C. 4×SOS1/GDP and 4×SOS1/GTP were prepared in assay buffer. 5 μL/well of 4×SOS1/GDP mix was added to negative control wells, 5 μL/well of 4×SOS1/GTP mix was added to the remaining wells, and the plate was further incubated at 23° C. for 1 hr. Finally, FLAG-tagged Raf-RBD is added to the reaction mixture along with a pair of FRET donor- and acceptor-conjugated antibodies specific for the FLAG-tagged Raf-RBD and His-tagged KRAS G12C proteins. A 4×Raf-RBD/Tb-anti-FLAG/D2-anti-His mix was prepared in assay buffer, and 5 μL/well of the mix was added to all wells, followed by incubation at room temperature for 2 hr. The TR-FRET signals, which increase with association of KRAS G12C and Raf-RBD, were measured on a Perkin Elmer Envision 2104 plate reader, and data were analyzed by non-linear regression to obtain IC50 values for inhibition by compounds. Table 2 includes results of the assay of Method III. ‘+++’ indicates IC50 values≤300 nM, ‘++’ indicates IC50 values between 300 nM-3 μM, and ‘+’ indicates IC50 values≥3 μM.

Chain of KRAS G12C protein (P01116 1-188 isoform P01116-2 G12C): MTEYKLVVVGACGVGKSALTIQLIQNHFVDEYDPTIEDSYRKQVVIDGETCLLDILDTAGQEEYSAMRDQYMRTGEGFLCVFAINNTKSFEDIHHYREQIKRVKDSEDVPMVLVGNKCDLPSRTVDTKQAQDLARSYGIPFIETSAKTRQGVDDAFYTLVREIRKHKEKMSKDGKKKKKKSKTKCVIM

| Structure (SMILES) | IC50 [µM] |
| --- | --- |
| C=C(F)C(=O)N1CCN(c2nc(OC3CN(C)CC3C)nc3c2COC(c2cccc4cccc(Cl)c24)C3)C[C@@H]1CC#N (single isomer, unassigned) [272 (Isomer C)] | ≤ 0.3 |
| C=C(F)C(=O)N1CCN(c2nc(OC[C@@H]3CCCN3C)nc3c2OCC(c2cccc4cccc(Cl)c24)O3)C[C@@H]1CC#N (single isomer, unassigned) [64 (Isomer B)] | 0.3 to 3 |
| C=C(F)C(=O)N1[C@H](C)CN(c2nc(OC[C@@H]3CCCN3C)nc3c2COC(c2cccc4cccc(Cl)c24)C3)C[C@@H]1C (single isomer, unassigned) [237 (Isomer A)] | ≥ 3 |
| C=C(F)C(=O)N1CCN(c2nc(OC[C@@H]3CCCN3C)nc3c2OCC(c2cccc4cccc(Cl)c24)O3)C[C@@H]1CC#N (single isomer, unassigned) [64 (Isomer A)] | 0.3 to 3 |
| C=C(Cl)C(=O)N1CCN(c2nc(OC[C@@H]3CCCN3C)nc3c2COC(c2cccc4cccc(Cl)c24)C3)C[C@@H]1CC#N (single isomer, unassigned) [239 (Isomer A)] | ≥ 3 |
| C=C(F)C(=O)N1CCN(c2nc(OC[C@@H]3CCCN3C)nc3c2COC(c2cccc4cccc(Cl)c24)C3)CC1(C)C (single isomer, unassigned) [238 (Isomer B)] | ≥ 3 |
| C=C(F)C(=O)N1CCN(c2nc(Oc3cccc4c3CN(C)CC4)nc3c2COC(c2cccc4cccc(Cl)c24)C3)C[C@@H]1CC#N (single isomer, unassigned) [249 (Isomer A)] | 0.3 to 3 |
| C=C(F)C(=O)N1CCN(c2nc(OC[C@@H]3CCCN3C)nc3c2CC=C(c2cccc4cccc(Cl)c24)O3)CC1 [Compound 174, (S)-1-(4-(7-(8-chloronaphthalen-1-yl)-2-((1-methylpyrrolidin-2-yl)methoxy)-5H-pyrano[2,3-d]pyrimidin-4-yl)piperazin-1-yl)-2-fluoroprop-2-en-1-one] | ≥ 3 |
| C=CC(=O)N1CCN(c2nc(OC[C@@H]3CCCN3C)nc3c2COC(c2cccc4cccc(Cl)c24)C3)C[C@@H]1CC#N (single isomer, unassigned) [38 (Isomer A)] | 0.3 to 3 |
| C=C(F)C(=O)N1CCN(c2nc(OC[C@@H]3CCCN3C)nc3c2COC(c2cccc4cccc(Cl)c24)C3)[C@@H](C)C1 (single isomer, unassigned) [44 (Isomer B)] | 0.3 to 3 |
| C=C(F)C(=O)N1CCN(c2nc(OC[C@@H]3CCCN3C)nc3c2COC(c2c(C)ccc4[nH]ncc24)C3)C[C@@H]1CC#N (single isomer, unassigned) [52 (Isomer A)] | 0.3 to 3 |
| C=C(F)C(=O)N1CCN(c2nc(Nc3cnn(C)c3)nc3c2COC(c2cccc4cccc(Cl)c24)C3)C[C@@H]1CC#N (single isomer, unassigned) [233 (Isomer A)] | ≥ 3 |
| C=C(F)C(=O)N1CCN(c2nc(Oc3cccc4c3CN(C)CC4)nc3c2COC(c2cccc4cccc(Cl)c24)C3)C[C@@H]1CC#N (single isomer, unassigned) [249 (Isomer B)] | ≥ 3 |
| C=C(C)C(=O)N1CCN(c2nc(OC[C@@H]3CCCN3C)nc3c2COC(c2cccc4cccc(Cl)c24)C3)C[C@@H]1CC#N (single isomer, unassigned) [240 (Isomer A)] | ≥ 3 |
| C=CC(=O)N1CCN(c2nc(OC[C@@H]3CCCN3C)nc3c2OCC(c2cccc4cccc(Cl)c24)O3)CC1 (single isomer, unassigned) [135 (Isomer B)] | ≥ 3 |
| C=C(F)C(=O)N1CCN(c2nc(OC[C@@H]3CCCN3C)nc3c2CC=C(c2cccc4cccc(Cl)c24)O3)C[C@H]1C [Compound 154, 1-((R)-4-(7-(8-chloronaphthalen-1-yl)-2-(((S)-1-methylpyrrolidin-2-yl)methoxy)-5H-pyrano[2,3-d]pyrimidin-4-yl)-2-methylpiperazin-1-yl)-2-fluoroprop-2-en-1-one] | ≥ 3 |
| C=C(F)C(=O)N1CCN(c2nc(OC[C@@H]3CCCN3C)nc3c2COC(c2cccc4cccc(Cl)c24)C3)C[C@H]1C (single isomer, unassigned) [42 (Isomer A)] | ≥ 3 |
| C=C(F)C(=O)N1CCN(c2nc(Nc3cnn(C)c3)nc3c2COC(c2cccc4cccc(Cl)c24)C3)C[C@@H]1CC#N (single isomer, unassigned) [233 (Isomer B)] | ≥ 3 |
| C=C(F)C(=O)N1CCN(c2nc(OC[C@@H]3CCCN3C)nc3c2COC(c2cccc4cccc(Cl)c24)C3(C)C)C[C@@H]1CC#N (single isomer, unassigned) [258 (Isomer A)] | ≥ 3 |
| C=C(F)C(=O)N1C[C@H](C)N(c2nc(OC[C@@H]3CCCN3C)nc3c2COC(c2cccc4cccc(Cl)c24)C3)C[C@H]1C (single isomer, unassigned) [235 (Isomer B)] | ≥ 3 |

| Structure (SMILES) | IC50 [µM] |
| --- | --- |
| C=C(F)C(=O)N1CCN(c2nc(NCCC(=O)N(C)C)nc3c2COC(c2cccc4cccc(Cl)c24)C3)C[C@@H]1CC#N (single isomer, unassigned) [232 (Isomer B)] | ≥ 3 |
| C=C(F)C(=O)N1CCN(c2nc(NC3CCN(S(C)(=O)=O)CC3)nc3c2COC(c2cccc4cccc(Cl)c24)C3)C[C@@H]1CC#N (single isomer, unassigned) [231 (Isomer B)] | ≥ 3 |
| C=C(F)C(=O)N1CCN(c2nc(OC3CCN(C)CC3)nc3c2COC(c2cccc4cccc(Cl)c24)C3)C[C@@H]1CC#N (single isomer, unassigned) [234 (Isomer A)] | ≥ 3 |
| CC#CC(=O)N1CCN(c2nc(OC[C@@H]3CCCN3C)nc3c2COC(c2cccc4cccc(Cl)c24)C3)C[C@@H]1CC#N (single isomer, unassigned) [243 (Isomer A)] | ≥ 3 |
| C=C(F)C(=O)N1CCN(c2nc(OC[C@@H]3CCCN3C)nc3c2OCC(c2cccc4cccc(Cl)c24)O3)[C@@H](C)C1 (single isomer, unassigned) [136 (Isomer B)] | ≥ 3 |
| C=C(F)C(=O)N1CCN(c2nc(Oc3cccc4c3CCN(C)C4)nc3c2COC(c2cccc4cccc(Cl)c24)C3)C[C@@H]1CC#N (single isomer, unassigned) [250 (Isomer A)] | 0.3 to 3 |
| C=C(F)C(=O)N1CCN(c2nc(OC3CCN(C)CC3)nc3c2COC(c2cccc4cccc(Cl)c24)C3)C[C@@H]1CC#N (single isomer, unassigned) [234 (Isomer B)] | 0.3 to 3 |
| C=C(F)C(=O)N1[C@H](C)CN(c2nc(OC[C@@H]3CCCN3C)nc3c2COC(c2cccc4cccc(Cl)c24)C3)C[C@@H]1C (single isomer, unassigned) [237 (Isomer B)] | ≥ 3 |
| C=C(F)C(=O)N1CCN(c2nc(OC[C@@H]3CCCN3C)nc3c2COC(c2cccc4cccc(Cl)c24)C3)C[C@H]1C (single isomer, unassigned) [42 (Isomer B)] | ≥ 3 |
| C=C(F)C(=O)N1CCN(c2nc(OC3CN(C)CC3C)nc3c2COC(c2cccc4cccc(Cl)c24)C3)C[C@@H]1CC#N (single isomer, unassigned) [272 (Isomer D)] | 0.3 to 3 |
| CN(C)C/C=C/C(=O)N1CCN(c2nc(OC[C@@H]3CCCN3C)nc3c2COC(c2cccc4cccc(Cl)c24)C3)C[C@@H]1CC#N (single isomer, unassigned) [242 (Isomer B)] | ≤ 0.3 |
| C=C(F)C(=O)N1CCN(c2nc(N3CCC(N(CC)CC)CC3)nc3c2COC(c2cccc4cccc(Cl)c24)C3)C[C@@H]1CC#N (single isomer, unassigned) [230 (Isomer B)] | 0.3 to 3 |
| C/C=C/C(=O)N1CCN(c2nc(OC[C@@H]3CCCN3C)nc3c2COC(c2cccc4cccc(Cl)c24)C3)C[C@@H]1CC#N (single isomer, unassigned) [241 (Isomer B)] | 0.3 to 3 |
| C=C(F)C(=O)N1CCN(c2nc(OC[C@@H]3CCCN3C)nc3c2COC(c2cccc4cccc(Cl)c24)C3)[C@@H](C)C1 (single isomer, unassigned) [44 (Isomer A)] | ≥ 3 |
| C=C(F)C(=O)N1CCN(c2nc(OC3CN(C)CC3C)nc3c2COC(c2cccc4cccc(Cl)c24)C3)C[C@@H]1CC#N (single isomer, unassigned) [272 (Isomer B)] | ≥ 3 |
| C=C(F)C(=O)N1CCN(c2nc(Oc3cccc4c3CCN(C)C4)nc3c2COC(c2cccc4cccc(Cl)c24)C3)C[C@@H]1CC#N (single isomer, unassigned) [250 (Isomer B)] | 0.3 to 3 |
| C=C(F)C(=O)N1CCN(c2nc(N3CC(N(CC)CC)C3)nc3c2COC(c2cccc4cccc(Cl)c24)C3)C[C@@H]1CC#N (single isomer, unassigned) [229 (Isomer B)] | ≥ 3 |
| C=C(F)C(=O)N1C[C@H](C)N(c2nc(OC[C@@H]3CCCN3C)nc3c2COC(c2cccc4cccc(Cl)c24)C3)C[C@H]1C (single isomer, unassigned) [235 (Isomer A)] | ≥ 3 |
| C=C(F)C(=O)N1CCN(c2nc(NCCC(=O)N(C)C)nc3c2COC(c2cccc4cccc(Cl)c24)C3)C[C@@H]1CC#N (single isomer, unassigned) [232 (Isomer A)] | 0.3 to 3 |
| C=C(F)C(=O)N1CCN(c2nc(OC[C@@H]3CCCN3C)nc3c2COC(c2cccc4sc(N)nc24)C3)C[C@@H]1CC#N (single isomer, unassigned) [260 (Isomer B)] | ≤ 0.3 |
